Test results taken from ChEMBL document CHEMBL1201862, “PubChem BioAssay data set” (2004).
Activity calls are given as the source filed them.

Tests used:
[1] = HEp-2 cell cytotoxicity, dose response, cytotoxicity control for RSV inhibitor project, HTS (AID 2410); format: functional; settings: human respiratory syncytial virus
[2] = target: Photoreceptor-specific nuclear receptor (Homo sapiens, UniProt Q9Y5X4); format: functional;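 note: potency for compounds that break the NR2E3 corepressor complex and count as activators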
[3] = target: G-protein coupled receptor 55 (Homo sapiens, UniProt Q9Y2T6); test: GPR55 antagonists blocking LPI-driven arrestin recruitment, primary screen, imaging, U2OS, beta-arrestin-GFP, LPI agonist (AID 2013); format: functional;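 note: antagonist potency measured as reduced agonist-driven arrestin aggregation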
Sequence of G-protein coupled receptor 55 (Q9Y2T6 whole entry): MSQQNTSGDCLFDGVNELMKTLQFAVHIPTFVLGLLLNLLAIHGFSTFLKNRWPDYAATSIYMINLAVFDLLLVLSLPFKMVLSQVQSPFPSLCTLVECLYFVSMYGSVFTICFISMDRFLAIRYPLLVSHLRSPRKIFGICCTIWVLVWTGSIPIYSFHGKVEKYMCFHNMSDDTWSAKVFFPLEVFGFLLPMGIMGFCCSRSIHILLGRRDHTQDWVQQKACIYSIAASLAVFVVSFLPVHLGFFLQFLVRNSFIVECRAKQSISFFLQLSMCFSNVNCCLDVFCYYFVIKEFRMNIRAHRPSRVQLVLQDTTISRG

[4] = target: Peroxisome proliferator-activated receptor gamma/Nuclear receptor corepressor 2 (Homo sapiens, UniProt P37231+Q9Y618); format: functional
[5] = cells
[6] = target: T1, Intestinal-type alkaline phosphatase (Mus musculus, UniProt P24822); test: PubChem AID 488875; format: functional
T1 sequence (P24822 whole entry): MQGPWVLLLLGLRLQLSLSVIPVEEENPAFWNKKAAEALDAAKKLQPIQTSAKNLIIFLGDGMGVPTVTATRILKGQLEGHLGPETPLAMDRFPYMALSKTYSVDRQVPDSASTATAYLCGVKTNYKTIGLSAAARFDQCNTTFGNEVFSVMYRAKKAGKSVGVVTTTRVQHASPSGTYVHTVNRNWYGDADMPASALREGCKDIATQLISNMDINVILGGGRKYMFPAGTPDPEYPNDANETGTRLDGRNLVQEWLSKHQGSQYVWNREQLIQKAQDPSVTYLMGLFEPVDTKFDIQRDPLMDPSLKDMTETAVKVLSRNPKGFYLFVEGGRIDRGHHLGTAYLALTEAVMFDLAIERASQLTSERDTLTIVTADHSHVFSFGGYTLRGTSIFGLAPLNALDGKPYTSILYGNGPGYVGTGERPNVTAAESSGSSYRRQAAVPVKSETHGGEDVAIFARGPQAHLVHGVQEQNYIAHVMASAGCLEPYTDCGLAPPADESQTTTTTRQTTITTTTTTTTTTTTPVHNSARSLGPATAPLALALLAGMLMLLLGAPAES

[7] = target: T2, Intestinal-type alkaline phosphatase (Homo sapiens, UniProt P09923); test: human intestinal alkaline phosphatase activators, dose response, biochemical, luminescence, uHTS hits (AID 463120); format: functional
T2 sequence (P09923 whole entry): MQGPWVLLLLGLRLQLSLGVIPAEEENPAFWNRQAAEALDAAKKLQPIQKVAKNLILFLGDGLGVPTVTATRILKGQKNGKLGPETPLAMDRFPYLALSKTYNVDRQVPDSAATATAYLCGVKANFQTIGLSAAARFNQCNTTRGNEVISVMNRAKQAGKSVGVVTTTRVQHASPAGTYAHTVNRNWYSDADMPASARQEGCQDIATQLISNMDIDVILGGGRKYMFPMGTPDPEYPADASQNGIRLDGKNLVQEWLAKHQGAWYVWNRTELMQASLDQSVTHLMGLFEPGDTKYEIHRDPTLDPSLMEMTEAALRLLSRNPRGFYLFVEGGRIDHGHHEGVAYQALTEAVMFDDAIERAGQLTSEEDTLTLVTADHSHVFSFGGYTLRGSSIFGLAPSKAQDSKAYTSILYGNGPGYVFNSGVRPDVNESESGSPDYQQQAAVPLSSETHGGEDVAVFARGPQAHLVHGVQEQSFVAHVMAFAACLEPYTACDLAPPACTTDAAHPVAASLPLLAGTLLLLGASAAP

[8] = target: T2, Intestinal-type alkaline phosphatase; test: human IAP activators, dose response, biochemical, luminescent, uHTS hits, set 2 (AID 488817); format: functional;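 note: potency of activators that raise enzyme activity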
[9] = target: T3, Alkaline phosphatase, tissue-nonspecific isozyme (Homo sapiens, UniProt P05186); test: TNAP enzyme activators, dose response, selectivity assay for human IAP activator project, biochemical, TNAP isozyme, human IAP uHTS hits (AID 488886); format: functional;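 note: potency of compounds raising TNAP activity as a selectivity check on IAP activators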
T3 sequence (P05186 whole entry): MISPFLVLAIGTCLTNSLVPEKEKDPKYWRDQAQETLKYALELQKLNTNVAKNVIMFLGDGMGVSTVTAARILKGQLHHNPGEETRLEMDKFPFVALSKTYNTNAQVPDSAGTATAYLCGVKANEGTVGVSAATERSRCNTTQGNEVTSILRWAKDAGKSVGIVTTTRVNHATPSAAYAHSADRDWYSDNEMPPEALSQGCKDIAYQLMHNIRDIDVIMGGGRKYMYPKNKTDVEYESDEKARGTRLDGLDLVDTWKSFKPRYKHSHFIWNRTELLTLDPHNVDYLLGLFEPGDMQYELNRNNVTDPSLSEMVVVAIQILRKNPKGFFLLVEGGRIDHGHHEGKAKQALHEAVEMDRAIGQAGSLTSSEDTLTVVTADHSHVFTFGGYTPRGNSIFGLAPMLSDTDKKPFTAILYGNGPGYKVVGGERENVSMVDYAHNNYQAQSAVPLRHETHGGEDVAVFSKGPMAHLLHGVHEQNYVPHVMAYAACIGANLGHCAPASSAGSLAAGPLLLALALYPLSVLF

[10] = target: T4, Type-1 angiotensin II receptor (Homo sapiens, UniProt P30556); test: AT1 receptor agonists, dose response, selectivity assay for APJ receptor agonist project, cell-based, uHTS hits (AID 488865); format: functional;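 note: beta-arrestin recruitment to AT1 measured by enzyme fragment complementation luminescence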
T4 sequence (P30556 whole entry): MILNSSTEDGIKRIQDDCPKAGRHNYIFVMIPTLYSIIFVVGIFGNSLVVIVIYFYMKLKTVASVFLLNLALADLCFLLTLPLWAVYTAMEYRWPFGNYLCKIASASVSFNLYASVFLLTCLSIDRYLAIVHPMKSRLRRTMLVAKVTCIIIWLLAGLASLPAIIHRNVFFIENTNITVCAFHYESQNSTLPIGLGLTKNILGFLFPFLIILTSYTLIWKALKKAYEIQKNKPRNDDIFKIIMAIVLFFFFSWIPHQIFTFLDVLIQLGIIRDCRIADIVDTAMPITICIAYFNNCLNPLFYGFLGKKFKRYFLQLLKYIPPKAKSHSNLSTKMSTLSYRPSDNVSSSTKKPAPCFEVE

[11] = target: T2, Intestinal-type alkaline phosphatase; test: activation of human intestinal alkaline phosphatase – biochemical, dose response (AID 488873); format: functional
[12] = target: Alkaline phosphatase, placental type (Homo sapiens, UniProt P05187); test: PLAP enzyme inhibitors, confirmation, biochemical, luminescence (AID 1512); format: functional
Sequence of Alkaline phosphatase, placental type (P05187 whole entry): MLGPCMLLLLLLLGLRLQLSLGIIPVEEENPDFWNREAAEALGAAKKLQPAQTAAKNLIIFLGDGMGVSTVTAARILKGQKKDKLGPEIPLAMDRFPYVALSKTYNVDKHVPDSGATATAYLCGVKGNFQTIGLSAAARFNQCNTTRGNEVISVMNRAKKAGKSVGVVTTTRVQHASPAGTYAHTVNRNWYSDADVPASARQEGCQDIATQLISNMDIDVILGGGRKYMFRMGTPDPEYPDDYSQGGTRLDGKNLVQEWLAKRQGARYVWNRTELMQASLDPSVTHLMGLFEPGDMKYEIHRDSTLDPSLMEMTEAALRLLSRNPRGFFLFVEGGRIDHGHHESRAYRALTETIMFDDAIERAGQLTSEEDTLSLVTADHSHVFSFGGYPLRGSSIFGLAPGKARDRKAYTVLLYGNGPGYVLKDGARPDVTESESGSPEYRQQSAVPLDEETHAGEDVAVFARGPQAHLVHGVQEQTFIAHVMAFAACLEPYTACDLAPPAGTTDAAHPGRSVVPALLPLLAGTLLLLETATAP

[13] = target: T3, Alkaline phosphatase, tissue-nonspecific isozyme; test: human TNAP enzyme inhibitors, SAR follow-up, biochemical, luminescent, dose response (AID 1056)
[14] = target: T1, Intestinal-type alkaline phosphatase; test: mouse intestinal alkaline phosphatase activators, dose response, biochemical, luminescence, uHTS hits (AID 488783); format: functional
[15] = target: T3, Alkaline phosphatase, tissue-nonspecific isozyme; test: TNAP enzyme activators, dose response, selectivity assay for mouse IAP activator project, biochemical, TNAP isozyme, mouse IAP uHTS hits (AID 488880); format: functional
[16] = target: T5, Rac GTPase-activating protein 1 (Homo sapiens, UniProt Q9H0H5); test: MgcRacGAP GTPase-activating activity inhibitors, confirmation, biochemical, ADP Hunter fluorescence, primary and confirmatory (AID 624330); format: functional
T5 sequence (Q9H0H5 whole entry): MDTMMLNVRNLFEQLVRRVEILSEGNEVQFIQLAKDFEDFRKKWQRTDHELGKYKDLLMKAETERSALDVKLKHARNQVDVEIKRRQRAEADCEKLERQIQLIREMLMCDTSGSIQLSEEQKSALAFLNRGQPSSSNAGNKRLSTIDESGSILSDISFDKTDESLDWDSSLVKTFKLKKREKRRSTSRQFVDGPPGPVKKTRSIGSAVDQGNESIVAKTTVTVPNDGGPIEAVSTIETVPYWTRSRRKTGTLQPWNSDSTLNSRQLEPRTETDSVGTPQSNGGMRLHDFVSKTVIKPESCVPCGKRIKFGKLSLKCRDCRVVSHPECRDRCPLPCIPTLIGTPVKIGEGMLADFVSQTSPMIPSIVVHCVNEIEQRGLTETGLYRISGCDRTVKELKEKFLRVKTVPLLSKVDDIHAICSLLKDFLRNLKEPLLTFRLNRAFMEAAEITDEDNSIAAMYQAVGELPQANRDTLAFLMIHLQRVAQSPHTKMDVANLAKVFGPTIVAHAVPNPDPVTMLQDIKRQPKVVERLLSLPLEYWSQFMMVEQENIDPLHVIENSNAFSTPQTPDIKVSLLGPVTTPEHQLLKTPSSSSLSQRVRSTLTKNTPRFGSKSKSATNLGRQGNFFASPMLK

[17] = target: T6, Troponin, cardiac muscle (Homo sapiens, UniProt P19429+P45379+P63316); test: Fluorescence-based biochemical high throughput dose response assay for activators of the calcium sensitivity of cardiac Regulated Thin Filaments (RTF). [Related pubchem assays (depositor defined):AID493008, AID493018, AID504382, AID504383]; format: protein-complex assay
[18] = target: Induced myeloid leukemia cell differentiation protein Mcl-1 (Homo sapiens, UniProt Q07820); format: functional
Sequence of Induced myeloid leukemia cell differentiation protein Mcl-1 (Q07820 whole entry): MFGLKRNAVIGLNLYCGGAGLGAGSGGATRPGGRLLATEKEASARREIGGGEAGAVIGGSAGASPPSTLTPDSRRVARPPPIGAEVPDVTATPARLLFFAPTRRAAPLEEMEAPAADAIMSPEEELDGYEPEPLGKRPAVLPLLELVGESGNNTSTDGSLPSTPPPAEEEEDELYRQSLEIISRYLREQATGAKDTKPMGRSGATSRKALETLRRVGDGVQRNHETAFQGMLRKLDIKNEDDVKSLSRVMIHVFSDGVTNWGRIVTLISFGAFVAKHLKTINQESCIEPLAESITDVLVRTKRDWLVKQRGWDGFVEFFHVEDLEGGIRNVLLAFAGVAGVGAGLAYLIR

[19] = target: T7, ORF 73 (Human herpesvirus 8, UniProt O40947); test: inhibitors of C-LANA binding to LBS DNA, dose response, biochemical, fluorescence polarization, cherry-picked samples (AID 504725); design: species or system Human gammaherpesvirus 8;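 note: fluorescence polarization of a labeled DNA duplex reporting LANA DNA binding; potency is for inhibitors that block LANA binding to the DNA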
T7 sequence (O40947 whole entry): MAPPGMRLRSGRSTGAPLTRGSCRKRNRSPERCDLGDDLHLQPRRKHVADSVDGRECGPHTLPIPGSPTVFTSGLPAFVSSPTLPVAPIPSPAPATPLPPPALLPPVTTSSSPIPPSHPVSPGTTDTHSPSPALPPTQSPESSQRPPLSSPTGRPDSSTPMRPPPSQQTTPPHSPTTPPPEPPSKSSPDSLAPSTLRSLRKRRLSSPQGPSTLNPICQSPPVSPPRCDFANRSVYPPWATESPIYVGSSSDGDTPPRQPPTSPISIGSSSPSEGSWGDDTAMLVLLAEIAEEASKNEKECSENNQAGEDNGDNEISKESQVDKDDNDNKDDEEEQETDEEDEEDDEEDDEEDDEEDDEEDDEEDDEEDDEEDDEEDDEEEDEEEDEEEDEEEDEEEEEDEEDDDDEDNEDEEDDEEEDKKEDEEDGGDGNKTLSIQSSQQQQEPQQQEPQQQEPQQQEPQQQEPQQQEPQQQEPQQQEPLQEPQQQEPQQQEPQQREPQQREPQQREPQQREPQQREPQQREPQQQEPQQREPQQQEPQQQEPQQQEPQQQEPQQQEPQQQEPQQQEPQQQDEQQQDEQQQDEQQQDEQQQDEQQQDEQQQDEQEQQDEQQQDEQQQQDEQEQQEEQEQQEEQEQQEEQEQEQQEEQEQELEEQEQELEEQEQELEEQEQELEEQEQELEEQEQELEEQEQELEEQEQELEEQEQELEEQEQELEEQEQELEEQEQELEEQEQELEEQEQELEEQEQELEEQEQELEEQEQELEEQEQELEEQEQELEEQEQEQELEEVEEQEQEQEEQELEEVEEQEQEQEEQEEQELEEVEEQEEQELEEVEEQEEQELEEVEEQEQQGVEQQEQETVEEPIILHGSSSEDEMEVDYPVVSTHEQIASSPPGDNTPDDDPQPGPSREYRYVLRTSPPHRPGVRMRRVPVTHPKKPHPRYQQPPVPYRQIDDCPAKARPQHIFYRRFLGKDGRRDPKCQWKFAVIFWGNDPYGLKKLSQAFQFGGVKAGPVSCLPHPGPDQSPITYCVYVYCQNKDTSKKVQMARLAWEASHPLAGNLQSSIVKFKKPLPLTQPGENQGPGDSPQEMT

[20] = target: T6, Troponin, cardiac muscle; test: inhibitors of cardiac thin filament calcium sensitivity, dose response, biochemical, fluorescence, cardiac regulated thin filaments, triplicate IC50 (AID 504742); format: protein-complex assay
[21] = target: T8, Endoribonuclease toxin MazF (Escherichia coli K-12, UniProt P0AE70); test: MazF toxin RNase activators, dose response, biochemical, fluorescence, single-stranded RNA substrate, uHTS hits (AID 588481); format: functional
T8 sequence (P0AE70 whole entry): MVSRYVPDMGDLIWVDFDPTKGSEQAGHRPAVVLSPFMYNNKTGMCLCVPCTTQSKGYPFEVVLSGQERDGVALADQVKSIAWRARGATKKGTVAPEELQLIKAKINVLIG

[22] = target: T8, Endoribonuclease toxin MazF; test: fluorescent RNA oligo signal without MazF, dose response, counter-screen for MazEF activator project, biochemical, fluorescence, single-stranded RNase substrate (AID 588502); format: functional
[23] = target: Genome polyprotein (dengue virus type 2, UniProt P29990); test: Dengue-2 NS5 methyltransferase inhibitors, primary screen, biochemical, confirmation dose response (AID 588689); format: functional
Sequence of Genome polyprotein (P29990 2492-3391 limits assumed): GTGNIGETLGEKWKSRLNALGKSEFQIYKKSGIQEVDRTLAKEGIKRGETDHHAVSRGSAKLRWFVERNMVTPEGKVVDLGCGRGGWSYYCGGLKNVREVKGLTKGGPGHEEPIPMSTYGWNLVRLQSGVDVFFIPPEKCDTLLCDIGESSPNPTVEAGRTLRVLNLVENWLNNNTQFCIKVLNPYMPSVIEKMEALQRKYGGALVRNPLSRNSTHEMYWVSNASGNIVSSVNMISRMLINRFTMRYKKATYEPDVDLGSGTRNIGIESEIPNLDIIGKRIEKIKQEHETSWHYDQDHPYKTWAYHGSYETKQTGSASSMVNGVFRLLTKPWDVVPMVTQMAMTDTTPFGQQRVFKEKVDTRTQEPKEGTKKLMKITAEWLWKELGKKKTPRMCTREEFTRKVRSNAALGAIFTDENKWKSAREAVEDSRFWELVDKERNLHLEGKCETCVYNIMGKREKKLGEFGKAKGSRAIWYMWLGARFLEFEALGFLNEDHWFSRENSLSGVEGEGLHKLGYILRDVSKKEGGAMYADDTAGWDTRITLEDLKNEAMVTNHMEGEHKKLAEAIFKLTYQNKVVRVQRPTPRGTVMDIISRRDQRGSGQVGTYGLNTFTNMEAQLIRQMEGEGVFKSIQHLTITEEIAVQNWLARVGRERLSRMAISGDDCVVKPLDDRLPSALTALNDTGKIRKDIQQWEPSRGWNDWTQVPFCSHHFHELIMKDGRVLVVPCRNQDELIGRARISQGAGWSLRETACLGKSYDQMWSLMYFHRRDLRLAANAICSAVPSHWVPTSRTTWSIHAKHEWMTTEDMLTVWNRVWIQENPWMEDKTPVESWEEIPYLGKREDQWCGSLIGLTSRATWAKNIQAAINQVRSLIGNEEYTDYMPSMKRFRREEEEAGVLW

[24] = target: T9, Long-chain-fatty-acid--AMP ligase FadD28 (Mycobacterium tuberculosis, UniProt P9WQ59); test: Fluorescence polarization aasay to screen for inhibitors that compete for the binding of FadD28 to a bisubstrate Measured in Biochemical System Using Plate Reader - 2147-01_Inhibitor_Dose_CherryPick_Activity.; format: functional, Mycobacterium tuberculosis H37Rv
T9 sequence (P9WQ59 whole entry): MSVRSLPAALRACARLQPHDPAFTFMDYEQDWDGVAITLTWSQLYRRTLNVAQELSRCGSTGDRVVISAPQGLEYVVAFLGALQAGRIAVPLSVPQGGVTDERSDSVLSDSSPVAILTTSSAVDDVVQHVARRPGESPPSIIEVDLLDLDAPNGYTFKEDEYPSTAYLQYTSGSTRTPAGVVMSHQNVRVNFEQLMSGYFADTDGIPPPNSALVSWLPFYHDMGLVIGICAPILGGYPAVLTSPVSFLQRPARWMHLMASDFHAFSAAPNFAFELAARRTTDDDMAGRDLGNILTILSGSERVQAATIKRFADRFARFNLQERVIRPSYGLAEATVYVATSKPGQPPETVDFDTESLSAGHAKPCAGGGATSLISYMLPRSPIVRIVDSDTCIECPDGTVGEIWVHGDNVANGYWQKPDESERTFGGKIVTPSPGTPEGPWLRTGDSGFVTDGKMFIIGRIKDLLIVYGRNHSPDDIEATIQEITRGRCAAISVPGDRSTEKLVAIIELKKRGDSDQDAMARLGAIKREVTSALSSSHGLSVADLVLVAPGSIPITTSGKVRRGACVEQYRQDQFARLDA

[25] = target: T10, Caspase-6 (Homo sapiens, UniProt P55212); test: human caspase-6 inhibitors, dose response, biochemical, VEID-R110 fluorescence, cherry-pick (AID 720632)
T10 sequence (P55212 whole entry): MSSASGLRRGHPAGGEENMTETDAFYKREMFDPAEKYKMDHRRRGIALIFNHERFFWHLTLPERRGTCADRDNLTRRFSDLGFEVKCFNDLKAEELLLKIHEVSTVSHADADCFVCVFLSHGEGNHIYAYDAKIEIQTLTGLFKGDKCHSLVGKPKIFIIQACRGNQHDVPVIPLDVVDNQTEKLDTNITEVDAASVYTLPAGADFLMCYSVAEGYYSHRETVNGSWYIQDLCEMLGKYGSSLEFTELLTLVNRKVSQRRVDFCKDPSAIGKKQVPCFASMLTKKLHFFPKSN

[26] = target: Caspase-7 (Homo sapiens, UniProt P55210); test: human caspase-7 inhibitors, dose response, selectivity assay for caspase-6 inhibitor project, biochemical, DEVD-R110 fluorescence, cherry-pick (AID 743295)
Sequence of Caspase-7 (P55210 24-198 limits assumed): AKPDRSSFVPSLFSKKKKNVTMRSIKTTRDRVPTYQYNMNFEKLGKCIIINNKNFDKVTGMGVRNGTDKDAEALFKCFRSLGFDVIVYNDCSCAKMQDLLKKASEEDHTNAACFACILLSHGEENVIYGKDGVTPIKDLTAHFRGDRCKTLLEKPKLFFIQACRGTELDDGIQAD
Sequence of Caspase-7 (P55210 207-303 limits assumed): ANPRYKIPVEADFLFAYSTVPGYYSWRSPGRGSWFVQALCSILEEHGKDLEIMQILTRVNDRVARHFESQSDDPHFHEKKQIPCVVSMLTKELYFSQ

[27] = target: 1-phosphatidylinositol 4,5-bisphosphate phosphodiesterase gamma-1 (Homo sapiens, UniProt P19174); test: Counterscreen for inhibitors of phospholipase C isozymes (PLC-B3): Fluorescence-based biochemical high throughput dose response assay to identify inhibitors of phospholipase C isozymes (PLC-gamma1).
Sequence of 1-phosphatidylinositol 4,5-bisphosphate phosphodiesterase gamma-1 (P19174 whole entry): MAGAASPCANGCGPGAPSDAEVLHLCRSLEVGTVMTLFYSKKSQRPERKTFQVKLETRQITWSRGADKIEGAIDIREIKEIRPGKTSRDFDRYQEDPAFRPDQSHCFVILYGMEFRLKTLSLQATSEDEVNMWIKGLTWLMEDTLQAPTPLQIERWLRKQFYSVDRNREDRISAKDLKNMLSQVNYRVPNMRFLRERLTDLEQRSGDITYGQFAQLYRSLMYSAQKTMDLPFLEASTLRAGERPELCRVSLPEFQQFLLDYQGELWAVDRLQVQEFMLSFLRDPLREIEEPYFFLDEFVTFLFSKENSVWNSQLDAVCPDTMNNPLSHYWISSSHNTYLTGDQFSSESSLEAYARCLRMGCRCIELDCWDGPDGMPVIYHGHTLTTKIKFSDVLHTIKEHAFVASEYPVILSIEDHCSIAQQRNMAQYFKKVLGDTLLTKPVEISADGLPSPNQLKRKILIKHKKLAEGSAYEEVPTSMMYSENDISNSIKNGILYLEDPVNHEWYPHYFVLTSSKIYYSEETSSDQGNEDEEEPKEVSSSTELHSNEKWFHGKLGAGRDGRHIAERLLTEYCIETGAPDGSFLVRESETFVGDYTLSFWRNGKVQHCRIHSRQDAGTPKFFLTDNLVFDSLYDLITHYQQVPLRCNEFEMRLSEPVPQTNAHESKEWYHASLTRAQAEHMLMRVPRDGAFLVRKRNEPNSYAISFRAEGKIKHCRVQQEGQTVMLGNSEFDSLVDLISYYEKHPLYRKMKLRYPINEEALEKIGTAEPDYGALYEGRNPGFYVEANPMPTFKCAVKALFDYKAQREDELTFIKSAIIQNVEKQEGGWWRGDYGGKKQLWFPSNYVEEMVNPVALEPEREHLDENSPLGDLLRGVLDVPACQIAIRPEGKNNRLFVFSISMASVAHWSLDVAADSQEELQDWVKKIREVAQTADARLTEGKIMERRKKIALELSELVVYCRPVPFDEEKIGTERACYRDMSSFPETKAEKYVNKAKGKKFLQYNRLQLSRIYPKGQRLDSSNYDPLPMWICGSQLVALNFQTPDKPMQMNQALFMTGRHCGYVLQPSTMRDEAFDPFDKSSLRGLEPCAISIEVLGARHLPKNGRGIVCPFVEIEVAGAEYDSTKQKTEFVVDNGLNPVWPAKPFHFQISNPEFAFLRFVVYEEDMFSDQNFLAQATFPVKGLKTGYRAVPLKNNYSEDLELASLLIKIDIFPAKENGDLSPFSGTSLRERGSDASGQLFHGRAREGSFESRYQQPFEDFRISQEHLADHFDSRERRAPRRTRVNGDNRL

[28] = target: 1-phosphatidylinositol 4,5-bisphosphate phosphodiesterase beta-3 (Homo sapiens, UniProt Q01970); test: Fluorescence-based biochemical high throughput dose response assay to identify inhibitors of phospholipase C isozymes (PLC-B3).

COC(=O)c1cc2c(-c3ccccc3)c(C)c3ccccn3c-2c1C(=O)OC
active: CC50 [1] 27 µM | IC50 [2] > 1.48 µM | IC50 [3] 2.58 µM | IC50 [4] 1.31 µM | IC50 [5] 23.4 µM

COc1ccc(OC)c(NC(=O)c2cc(-c3cc(C)ccc3O)n[nH]2)c1
active: EC50 [7] 15.1 µM | EC50 [8] 20.8 µM | EC50 [9] 18.5 µM
inactive: EC50 [6] > 100 µM

COC/C=C/C1=CC2=CC(=O)C(C)(OC(=O)c3cnc4ccccc4n3)C(=O)C2=CN1c1ccccc1 (stereo not drawn)
inactive: EC50 [10] > 100 µM

C=CCn1c(SCC(=O)c2ccc(O)c(O)c2)nnc1-c1cccc(OC)c1
inactive: EC50 [11] > 100 µM | EC50 [14] 100 µM
active: IC50 [12] 5.55 µM | IC50 [13] 17.4 µM | EC50 [15] 68 µM | IC50 [16] 77.7 µM

COc1ccc(C(=O)Nn2cnc3scc(-c4cccs4)c3c2=O)c(O)c1
inactive: EC50 [17] > 71.5 µM

O=c1oc2c(cc1O)oc(=O)c1cc(O)c(O)c(O)c12
active: IC50 [18] > 54 µM | AC50 [19] 18.9 µM | IC50 [20] 3.19 µM | IC50 [23] > 100 µM | AC50 [24] 98.7 µM | AC50 [25] 0.484 µM | AC50 [26] 2.35 µM
inactive: EC50 [21] 80.5 µM | EC50 [22] > 99 µM | IC50 [27] > 123 µM | IC50 [28] > 123 µM
